Measurements taken from publication PMC8244865, “Recruitment of phospholipase Cγ1 to the non-structural membrane protein pK15 of Kaposi Sarcoma-associated herpesvirus promotes its Src-dependent phosphorylation” (PLoS Pathogens, 2021).

T1: PLCγ1 nSH2 (Homo sapiens, UniProt P19174)
T1 construct: nSH2 (545–662): 180 ± 43 nM; thioredoxin (pETM22 fusion, purified on Ni column) (N, cleaved yes); made in house; host or cells: E. coli BL21(DE3)
T1 sequence (P19174 545-662): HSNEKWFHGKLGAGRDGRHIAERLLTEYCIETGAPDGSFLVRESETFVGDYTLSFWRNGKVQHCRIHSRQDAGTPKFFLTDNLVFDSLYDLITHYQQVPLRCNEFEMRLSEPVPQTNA

B1: pK15 CT^WT: pK15 cytoplasmic tail fused to GST at its N-terminal end, phosphorylated in vitro by Src (protein)
chain: SQLLNEVELQEVNRDPPNVFGYASILVSGAEESREPSPQPDQSGMSILRVDGGSAFRIDTAQAATQPTDDLYEEVLFPRN
modifications: tyrosine-phosphorylated in vitro by Src; sites not stated for this construct; left off: GST, N-terminal, kept

What was measured:
[1] = target: T2, PLCγ1 cSH2 (Homo sapiens, UniProt P19174); assay: 1H,15N HSQC NMR titration, PLCγ1 cSH2; format: binding; conditions: 1H-15N HSQC titration, 600 MHz, 298 K, 100 μM protein, 100 mM MES, 150 mM NaCl, 3 mM TCEP, pH 6.5
T2 construct: cSH2 (668–790): 166 ± 30 nM; thioredoxin (pETM22 fusion, purified on Ni column) (N, cleaved yes); made in house; host or cells: E. coli BL21(DE3)
Experimental: (§1) Fig 5 Affinity of pK15 peptide for PLCγ1 tSH2 or individual SH2 domains. (A) Binding curves of several PLCγ1 fragments in the presence of 200 nM 5,6-FAM-labelled pK15 (12mer). All measurements were performed in triplicate. […] (B and C) Overlay of ^1H,^15N HSQC NMR spectra of nSH2 (B) and cSH2 (C) alone (in yellow) and in the presence of 2 molar equivalents of the pK15 12mer peptide (blue), measured with a 600 MHz spectrometer at 298 K. The protein concentration was 100 μM and the buffer contained 100 mM MES, 150 mM NaCl, 3 mM TCEP, pH 6.5. (D and E) Excerpts from ^1H-^15N HSQC spectra of nSH2 (D) and cSH2 (E) upon addition of increasing concentrations of the pK15 12mer peptide.
(§2) Next, we used Nuclear Magnetic Resonance (NMR) spectroscopy to further compare the interaction of the phosphorylated pK15 12mer to the isolated nSH2 and cSH2 domains (Fig 5B–5E). We recorded ^1H-^15N HSQC spectra of each of the two domains in the presence of increasing concentrations of the pK15 peptide. […] In light of this, it is conceivable that the preference of pK15 CT for cSH2 in vivo may be determined by kinetic rather than thermodynamic factors.
NMR experiments were recorded at 298 K on a 600-MHz Bruker Avance III-HD spectrometer equipped with an inverse HCN cryogenic probehead (nitrogen-cooled) and running Topspin 3.2 software. […] NMR data were processed in Topspin and analysed in CcpNmr Analysis v2.4 [74].

[2] = target: T1, PLCγ1 nSH2; assay: 1H,15N HSQC NMR titration, PLCγ1 nSH2; format: binding; conditions: 1H-15N HSQC titration
Experimental: as §1
as §2, with “peptide. In this spectrum, each N-H group of the protein gives rise to one peak. […] A change in the position of a few NMR peaks of the amide groups of the protein upon addition of the peptide is indicative of binding. […] The behavior of the NMR peaks during the titration series, however, differed for the two SH2 domains, indicating different binding kinetics.” for “peptide.”
NMR experiments were recorded at 298 K on a 600-MHz Bruker Avance III-HD spectrometer equipped with an inverse HCN cryogenic probehead (nitrogen-cooled) and running Topspin 3.2 software. 2D ^15N-HSQC spectra were recorded using States-TPPI for frequency discrimination, with water suppression achieved via a combination of WATERGATE and water flip-back pulses to preserve the water magnetization. NMR data were processed in Topspin and analysed in CcpNmr Analysis v2.4 [74].

[3] = tested on: Src kinase; assay: in vitro phosphorylation of pK15 CT by Src; format: biochemical; conditions: human GST-6xHis Src or chicken 2xStrep Src
Source text: We expressed and purified the pK15 cytoplasmic tail (pK15 CT) fused to GST at its N-terminal end in bacteria and phosphorylated it in vitro using a commercially obtained human GST-6xHis Src, or a recombinant chicken 2xStrep Src kinase expressed in insect cells. In parallel, the GST-pK15 CT domain carrying the Y^481F mutation, or GST protein alone, were subjected to the same procedure. […] Following in vitro phosphorylation, pK15 CT^WT and pK15 CT^Y481F were used to pull down transiently expressed (Fig 2A) or endogenous (Fig 2B) PLCγ1 from HEK 293 lysates.
The GST-fused cytoplasmic tail of pK15 (GST-pK15 CT) was in vitro phosphorylated by recombinant human GST-6xHis Src kinase (ActiveMotif, 0.4 μg/ml per kinase reaction, 10 minutes at 30°C), or a recombinant chicken 2xStrep-Src kinase (10 μg/ml per kinase reaction, 30 minutes at 25°C). GST-pK15 CT was used at 4.8 μM or 6 μM and 50 μl or 100 μl reaction volumes for AlphaLISA and 3–6 μl glutathione beads with K15 and 25 μl reaction volume for GST pulldown experiments. […]
Supplementary file ppat.1009635.s001.tif: S1 Fig Both pK15 Y^431 and Y^481 are phosphorylated by recombinant Src kinase. […] Proteins were then analysed by WB using an antibody to pTyr. […]

T2 sequence (P19174 668-790): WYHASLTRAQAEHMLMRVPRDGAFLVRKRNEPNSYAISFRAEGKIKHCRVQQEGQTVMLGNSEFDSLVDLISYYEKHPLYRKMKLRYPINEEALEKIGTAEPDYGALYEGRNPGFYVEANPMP

Molecule	NMR exchange regime [1]	dissociation rate koff or association rate kon of nSH2–peptide complex relative to cSH2–peptide complex ([2]; 298 K, pH 6.5)	NMR exchange regime ([2]; 600 MHz, 298 K, 100 μM protein, 100 mM MES, 150 mM NaCl, 3 mM TCEP, pH 6.5)	affinity for nSH2 compared with cSH2 (NMR) ([2]; same saturating concentration of peptide, either nSH2 or cSH2)	pK15 bands detected after Src phosphorylation (pTyr Western blot) [3]
DDLpYEEVLFPRN [pK15 12mer, phosphorylated peptide representing the last 12 amino acids of pK15 CT (DDLp…)]	fast exchange regime	more than one order of magnitude slower than the corresponding rate of the cSH2–peptide complex	slow exchange regime	both domains bound the K15 peptide with similar affinity	–
B1	–	–	–	–	a dominant (bottom) and a minor (top) pK15 band
